Test results as given in patent US20160257997A1, “METHODS FOR WHOLE-CELL ANALYSIS OF GRAM-POSITIVE BACTERIA” (AdvanDx, Inc., priority 2009, published 2016).

Tested on: MecA mRNA
Assay: PNA FISH of MecA mRNA in permeabilized S. aureus (Examples 1-3)
Format: cell-based

Q: Which “fluorescent staining of bacteria (FITC filter)” value (MRSA 43300, oxacillin-induced, FIG. 1 Slides B-D, Probes 1-5 794 nM combined, Probe 2 750 nM, Probe 6 750 nM) does the source give for “GCTATCGTGTCACAA (all peptide nucleic acid (PNA); fluorescein label, position not given here; listed as Staphylococcus aureus) [Probe 2, Flu-labeled PNA probe, methicillin-resistance]” here?
A: Green fluorescent bacteria were observed

Q: What about the “fluorescent staining of bacteria (FITC filter), competition control” value (MRSA 43300, Probe 2 300 nM in the presence of 16.6-fold excess (5000 nM) of biotin labeled Probe 7, FIG. 1 Slide E) of the same sequence?
A: No signal was observed
